Assay results taken from US12324845B2, “Ligands for imaging cardiac innervation” (Lantheus Medical Imaging, Inc., priority 2006, dated 2025).
Where a name gives a salt, the structure may show the parent alone.

Molecular target: T1, human norepinephrine transporter (Homo sapiens, UniProt P23975)
T1 construct: purchased Perkin-Elmer; host or cells: MDCK cells (membrane preparation)
Test: Norepinephrine Transporter Binding Assay ([3H]desipramine displacement, MDCK cell membranes)
Settings: MDCK cell membrane preparation expressing human NET; [3H]desipramine 2 nM; 2 h on ice; triplicate
Description: Unless otherwise stated, all reactions were conducted under an inert atmosphere of dry nitrogen. Indicated temperatures refer to those of the reaction bath, while ambient laboratory temperature is noted as 22° C. Anhydrous dimethylformamide (DMF), dimethylsulfoxide (DMSO), acetonitrile (MCCN), pyridine, triethylamine (TEA), and diisopropylethylamine (DIEA) were obtained from Aldrich in SureSeal® bottles. Absolute ethanol was obtained from Quantum Chemical Corp. Merck silica gel, grade 9385, 230-400 mesh, 60 Å was used for flash chromatography. Ethyl acetate (EtOAc), chloroform (CHCl3), methanol (MeOH), HPLC grade acetonitrile (MeCN), dichloromethane (DCM), ethyl ether, acetone, sodium hydroxide (NaOH), and hydrochloric acid (HCl) were obtained from Baker. 1-Trityl-1H-imidazole-2-amine was prepared according to a published procedure (U.S. Pat. No. 6,130,231, incorporated by reference in its entirety). 1-Bromo-2-fluoroethane was purchased from Alfa Aesar. 3-Methoxy-4-fluorobenzonitrile was purchased from TCI. MDCK cell membranes expressing human norepinephrine transporter, and [^3H]desipramine were purchased from Perkin-Elmer. [^18F]NaF was obtained from PETNET Pharmaceutical Services (Cummings Park, Woburn, MA) on a MP1 anion exchange resin (BioRad) cartridge. Other reagents were obtained from Lancaster Synthesis, Inc., Sigma-Aldrich Chemical Co, or Fluka Chemical Corp.
Inhibitors to be tested were dissolved in incubation buffer (50 mM Tris-HCl, 10% sucrose, pH 7.4) at appropriate dilutions. The inhibitor solutions were added to the wells of a microtiter plate (40 μL/well) in triplicate. Each well of test agent (and appropriate control wells) was treated with a mixture of MDCK cell membrane preparation (22.4 μg of membrane) expressing human norepinephrine transporter (Bmax=3.7 pmol norepinephrine transporter/mg protein), and [^3H]desipramine (2 nM, 64.8 Ci/mmol) in a total volume of 0.2 mL. The resulting mixtures were incubated for 2 h on ice. A 96 well GF/C filter plate was presoaked with coating buffer (0.5% polyvinylpyrrolidine and 0.1% Tween 20) for 2 h at room temperature. The presoaked filter plate was washed with incubation buffer (6×0.2 mL). The NET reactions were transferred to the coated filter plate and filtered. The filter plate was washed (6×0.2 mL) with ice cold wash buffer (50 mM Tris-HCl, 0.9% NaCl, pH 7.4). The plate was dried overnight, incubated briefly with 25 μL scintillant, and read on a Micro Beta plate reader.

T1 sequence (P23975 whole entry): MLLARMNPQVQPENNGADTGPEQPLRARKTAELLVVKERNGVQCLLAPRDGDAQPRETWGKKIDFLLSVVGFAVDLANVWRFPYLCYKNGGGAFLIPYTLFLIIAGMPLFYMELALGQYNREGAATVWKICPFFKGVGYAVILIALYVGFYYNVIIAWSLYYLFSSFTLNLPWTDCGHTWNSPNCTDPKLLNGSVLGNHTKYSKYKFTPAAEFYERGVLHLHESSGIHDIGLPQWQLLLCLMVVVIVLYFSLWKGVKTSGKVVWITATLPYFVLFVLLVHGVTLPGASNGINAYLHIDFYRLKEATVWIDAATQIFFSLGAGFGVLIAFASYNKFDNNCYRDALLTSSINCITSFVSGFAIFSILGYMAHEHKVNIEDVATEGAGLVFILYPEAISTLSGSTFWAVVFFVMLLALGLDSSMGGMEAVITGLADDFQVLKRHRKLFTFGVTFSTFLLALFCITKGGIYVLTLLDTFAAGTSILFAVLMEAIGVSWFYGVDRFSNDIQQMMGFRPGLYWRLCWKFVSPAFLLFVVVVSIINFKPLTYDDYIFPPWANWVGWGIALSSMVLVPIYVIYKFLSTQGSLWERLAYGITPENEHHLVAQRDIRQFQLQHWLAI

## Fc1ccc(CNc2ncc[nH]2)cc1C(F)(F)F [Example 1, N-(4-Fluoro-3-(trifluoromethyl)benzyl)-1H-imidazol-2-amine]
  NET Affinity: 17.94 µM

## Cl.N=C(N)NCC(O)c1ccc(OCCF)cc1 (centres unmarked) [Example 2, 1-(2-(4-(2-fluoroethoxy)phenyl)-2-hydroxyethyl)guanidinium Chloride]
  NET Affinity: <20 µM

## Cl.N=C(N)NCCc1ccc(OCCF)cc1 [Example 3, 1-(4-(2-Fluoroethoxy)phenethyl)guanidinium Chloride]
  NET Affinity: 1.45 µM

## Cl.N=C1NCC(c2ccc(OCCF)cc2)N1 (centres unmarked) [Example 4, 4-(4-(2-Fluoroethoxy)phenyl)imidazolidin-2-iminium Chloride]
  NET Affinity: 7.27 µM

## Cl.N=C(N)N/C=C/c1ccc(OCCF)cc1 [Example 5, (E)-1-(4-(2-Fluoroethoxy)styryl)guanidinium Chloride]
  NET Affinity: 4.10 µM

## CC(N)C(O)c1cc(O)c(OCCF)c(O)c1.Cl (centres unmarked) [Example 6, 5-(2-Amino-1-hydroxypropyl)-2-(2-fluoroethoxy)benzene-1,3-diol Hydrochloride]
  NET Affinity: 102.8 µM

## COc1cc(CNC(=N)N)ccc1F.Cl [Example 7, 3-Methoxy-4-fluorobenzylguanidinium Chloride]
  NET Affinity: 20.71 µM

## Cl.N=C(N)NCc1ccc(OCCF)c(Br)c1 [Example 8, 3-Bromo-4-(2-fluoroethoxy)benzylguanidinium Chloride]
  NET Affinity: 5.65 µM

## N=C(N)NCc1cccc(OCCF)c1 [Example 9, 3-(2-Fluoroethoxy)benzylguanidinium Trifluoroacetate]
  NET Affinity: 4.36 µM

## N=C(N)NCCc1ccc(OCCF)c(Cl)c1 [Example 10, 3-Chloro-4-(2-fluoroethoxy)phenethylguanidinium Trifluoroacetate]
  NET Affinity: 1.80 µM

## CNC(C)C(O)c1ccc(F)c(O)c1 (centres unmarked) [Example 11, 1-(4-Fluoro-3-hydroxyphenyl)-1-hydroxy-N-methylpropan-2-aminium Trifluoroacetate]
  NET Affinity: 54.85 µM
